Reference: patent US8546377B2 (AbbVie Inc., priority 2009, dated 2013)

Legend:
Assay type in all cases: cell-based
[1] = biological target: T1, 5HT2B receptors (Homo sapiens, UniProt P41595); assay: Human 5-HT2B functional assay in CHO-K1 cells (calcium flux, FLIPR); settings: CHO-K1 cells over-expressing 5HT2B, calcium flux; read-out: EC50 (μM), 5-HT2B Agonist Activity
T1 construct: expressed in transfected cells; host or cells: CHO-K1 cells
Summary of the method: (§1)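 Frozen CHO-K1 cells over-expressing receptor, serum-starved overnight, loaded with Ca4 dye plus 2.5 mM probenecid for 60 min at room temperature. FLIPR fluorescence (ex 480/em 530 nm, 25° C) recorded 3 min after compound addition; 6-point 1:10 series from 10 μM, 0.2% DMSO. Response normalized to serotonin, 4-parameter fit gives EC50; Emax as % of serotonin.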

[2] = biological target: T2, 5HT2C receptors (Homo sapiens, UniProt P28335); assay: Human 5-HT2C functional assay in 1321N1 cells (intracellular calcium, FLIPR); set-up: expressed in transfected cells; host or cells: 1321N1 cells; settings: 1321N1 cells stably transfected, maximum calcium response; read-out: EC50 (μM), 5-HT2c Agonist Activity
T2 sequence (P28335 33-458): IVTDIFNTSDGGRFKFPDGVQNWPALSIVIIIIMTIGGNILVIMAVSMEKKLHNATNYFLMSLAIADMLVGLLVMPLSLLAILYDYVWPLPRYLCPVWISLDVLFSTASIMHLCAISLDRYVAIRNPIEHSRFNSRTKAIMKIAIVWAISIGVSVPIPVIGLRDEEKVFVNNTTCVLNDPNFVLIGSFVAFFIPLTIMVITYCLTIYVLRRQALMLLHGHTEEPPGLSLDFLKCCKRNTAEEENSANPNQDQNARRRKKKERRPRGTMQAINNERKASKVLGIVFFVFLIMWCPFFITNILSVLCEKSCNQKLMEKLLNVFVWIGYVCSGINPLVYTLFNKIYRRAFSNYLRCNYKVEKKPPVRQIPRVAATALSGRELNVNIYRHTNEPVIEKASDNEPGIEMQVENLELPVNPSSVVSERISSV
Summary of the method: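 Intracellular calcium in 1321N1 cells stably transfected with human 5-HT2C, serum-starved overnight, Fluo4 AM-loaded with 1% probenecid. Compounds at 10^−10 to 10^−5 M final, alone or with 10^−9 M serotonin; peak FLIPR response. EC50 from four-parameter logistic fit; Emax as % of serotonin effect.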

[3] = biological target: T2, 5HT2C receptors; assay: Human 5-HT2C functional assay in CHO-K1 cells (calcium flux, FLIPR); set-up: expressed in transfected cells; host or cells: CHO-K1 cells; settings: CHO-K1 cells over-expressing 5HT2C, calcium flux; read-out: EC50 (μM), 5-HT2c Agonist Activity
Summary of the method: as §1

Measured: EC50

T1 sequence (P41595 whole entry): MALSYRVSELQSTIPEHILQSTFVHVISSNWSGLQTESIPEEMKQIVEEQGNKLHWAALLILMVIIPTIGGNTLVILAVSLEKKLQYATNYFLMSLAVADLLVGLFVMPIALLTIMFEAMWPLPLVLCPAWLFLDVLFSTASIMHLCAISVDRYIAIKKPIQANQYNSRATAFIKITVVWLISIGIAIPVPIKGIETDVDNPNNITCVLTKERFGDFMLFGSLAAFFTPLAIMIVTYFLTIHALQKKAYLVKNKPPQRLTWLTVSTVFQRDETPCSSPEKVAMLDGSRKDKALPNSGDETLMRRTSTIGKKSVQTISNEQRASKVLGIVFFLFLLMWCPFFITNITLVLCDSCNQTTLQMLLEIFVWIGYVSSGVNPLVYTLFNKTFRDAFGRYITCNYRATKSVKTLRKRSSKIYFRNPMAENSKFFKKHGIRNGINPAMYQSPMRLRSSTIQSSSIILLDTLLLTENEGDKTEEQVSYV

O=C1NCC2CNCCN2c2ccc(NS(=O)(=O)c3ccccc3)cc21 (stereo not drawn) [Example 48, N-(7-oxo-1,2,3,4,4a,5,6,7-octahydropyrazino[1,2-a][1,4]benzodiazepin-9-yl)benzenesulfonamide]
> 10 µM: all assays above
